The structures appear in SMILES notation.

Consider four compounds from publication PMC7366380, “Discovery of a Potent and Selective Covalent Inhibitor and Activity-Based Probe for the Deubiquitylating Enzyme UCHL1, with Antifibrotic Activity” (Journal of the American Chemical Society, 2020).

In one assay the target is T1, USP25 (Homo sapiens, UniProt Q9UHP3).
T1 sequence (Q9UHP3 1-1055): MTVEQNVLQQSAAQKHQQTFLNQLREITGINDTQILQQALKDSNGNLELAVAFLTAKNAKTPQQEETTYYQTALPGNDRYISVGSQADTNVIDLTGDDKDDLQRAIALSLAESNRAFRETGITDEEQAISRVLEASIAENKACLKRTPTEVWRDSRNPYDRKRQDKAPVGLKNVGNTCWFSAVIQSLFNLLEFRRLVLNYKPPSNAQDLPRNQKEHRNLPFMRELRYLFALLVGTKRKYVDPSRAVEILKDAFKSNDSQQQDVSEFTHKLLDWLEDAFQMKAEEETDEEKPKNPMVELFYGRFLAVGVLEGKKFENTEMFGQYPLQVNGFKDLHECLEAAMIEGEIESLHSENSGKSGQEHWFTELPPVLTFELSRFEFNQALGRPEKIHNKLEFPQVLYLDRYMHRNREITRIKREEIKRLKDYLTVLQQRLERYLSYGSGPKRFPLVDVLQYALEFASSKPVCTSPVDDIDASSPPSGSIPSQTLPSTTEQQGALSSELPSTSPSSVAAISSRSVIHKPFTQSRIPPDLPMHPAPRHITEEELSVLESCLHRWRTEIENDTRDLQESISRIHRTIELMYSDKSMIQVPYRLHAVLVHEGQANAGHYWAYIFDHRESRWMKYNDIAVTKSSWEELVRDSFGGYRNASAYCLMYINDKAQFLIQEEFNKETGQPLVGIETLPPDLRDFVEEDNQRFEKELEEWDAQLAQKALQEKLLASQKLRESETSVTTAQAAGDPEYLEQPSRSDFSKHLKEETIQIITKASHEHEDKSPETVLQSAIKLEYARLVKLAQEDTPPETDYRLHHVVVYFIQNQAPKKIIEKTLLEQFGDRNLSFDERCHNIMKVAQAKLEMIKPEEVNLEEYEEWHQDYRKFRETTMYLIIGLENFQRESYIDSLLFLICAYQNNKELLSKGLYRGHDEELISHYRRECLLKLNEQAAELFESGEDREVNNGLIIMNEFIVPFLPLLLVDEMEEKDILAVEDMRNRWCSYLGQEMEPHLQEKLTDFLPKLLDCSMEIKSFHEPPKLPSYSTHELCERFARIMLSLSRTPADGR
Put plainly: Biochemical DUB selectivity profiling assay: USP25. The settings on record: Ub-Lys-TAMRA 50 nM, buffer B; read-out: Biochemical IC50 range, USP25. Here is the method:
DUB Assay Substrate Substrate
Buffer Concentration (nM) […]
Sepharose® 4B resin (GE Healthcare).
10 kDa molecular weight cut-off (MWCO)).
Fractions containing protein
Protein concentration was […]
reaction volume of 21 μL. […]
compound (final concentration 5 nM).
IC50 values were determined
Biochemical DUB selectivity profiling assays […]
in 40 µL total reaction volume.

For a further assay, the target named is T2, USP8 (Homo sapiens, UniProt P40818).
T2 sequence (P40818 1-1118): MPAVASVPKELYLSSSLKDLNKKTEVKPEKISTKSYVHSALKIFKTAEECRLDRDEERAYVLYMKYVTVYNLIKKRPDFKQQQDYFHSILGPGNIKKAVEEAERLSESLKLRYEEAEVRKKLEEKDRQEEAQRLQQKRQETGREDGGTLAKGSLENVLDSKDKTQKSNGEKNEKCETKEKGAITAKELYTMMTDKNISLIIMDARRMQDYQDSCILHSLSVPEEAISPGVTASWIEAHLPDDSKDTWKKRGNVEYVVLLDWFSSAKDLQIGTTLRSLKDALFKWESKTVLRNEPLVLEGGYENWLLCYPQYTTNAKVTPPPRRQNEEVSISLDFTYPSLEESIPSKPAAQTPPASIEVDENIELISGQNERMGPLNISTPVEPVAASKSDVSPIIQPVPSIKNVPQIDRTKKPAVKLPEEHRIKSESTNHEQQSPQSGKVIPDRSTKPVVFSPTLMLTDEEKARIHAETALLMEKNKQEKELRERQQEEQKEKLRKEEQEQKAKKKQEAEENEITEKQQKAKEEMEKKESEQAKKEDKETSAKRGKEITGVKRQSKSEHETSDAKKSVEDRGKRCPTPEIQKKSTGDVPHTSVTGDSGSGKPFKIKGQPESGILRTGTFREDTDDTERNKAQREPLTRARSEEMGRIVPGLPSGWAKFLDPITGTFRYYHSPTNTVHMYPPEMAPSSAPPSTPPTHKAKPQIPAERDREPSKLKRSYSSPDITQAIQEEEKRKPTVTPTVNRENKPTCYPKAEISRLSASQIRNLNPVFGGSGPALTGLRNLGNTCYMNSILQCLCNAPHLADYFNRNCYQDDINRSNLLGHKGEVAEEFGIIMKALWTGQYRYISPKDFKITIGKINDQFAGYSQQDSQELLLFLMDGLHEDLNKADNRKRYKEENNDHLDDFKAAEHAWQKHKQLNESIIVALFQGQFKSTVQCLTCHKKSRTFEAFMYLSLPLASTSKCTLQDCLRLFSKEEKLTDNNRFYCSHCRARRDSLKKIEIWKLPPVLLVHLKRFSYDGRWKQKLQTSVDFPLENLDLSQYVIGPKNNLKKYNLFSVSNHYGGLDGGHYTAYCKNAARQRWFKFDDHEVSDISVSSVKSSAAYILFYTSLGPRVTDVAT
The experiment in a line: biochemical.

Assay [1] concerns primary human bronchial fibroblasts from IPF patients (TGF-β1-triggered αSMA). The experiment in a line: Fibroblast-to-myofibroblast transition (FMT) assay, αSMA by high content analysis. To be noted: for αSMA inhibition / transdifferentiation (in words): IPF donor fibroblasts, TGF-β1, 3 days, high content imaging; for IC50: Homo sapiens, Fibroblast, 72 h, read-out: αSMA inhibition IC50 (95% CI).

`N#CN1CCC[C@H]1C(=O)N1CCc2c(-c3c[nH]c4ncccc34)cccc21` [Compound 1]: the 50% inhibitory concentration (IC50) at USP25 and on USP8 was > 10 µM throughout. In assay [1], the “αSMA inhibition / transdifferentiation (in words)” value was “inhibit transdifferentiation”.
For the compound `C#Cc1cnc2[nH]cc(-c3cccc4c3CCN4C(=O)[C@@H]3CCCN3C#N)c2c1` [Compound 2], the 50% inhibitory concentration (IC50) (in general, the midpoint of a concentration-inhibition curve) on USP25 was > 10 µM. Also, the “αSMA inhibition / transdifferentiation (in words)” value in assay [1] is “inhibit transdifferentiation”.
Consider `N#CN1CCC[C@@H]1C(=O)N1CCc2c(-c3c[nH]c4ncccc34)cccc21` [Compound 3], for which the concentration for half-maximal inhibition (IC50) on USP25 was > 10 µM; at USP8, > 10 µM; in assay [1], 2 µM. For the same compound, the “αSMA inhibition / transdifferentiation (in words)” value in assay [1] is “not and minimal αSMA inhibition”.
In the case of `CC(=O)O/N=C1\C(=O)N(Cc2cc(Cl)ccc2Cl)c2ccc(Cl)cc21` [LDN-57444, reference compound], the IC50 at USP25 is > 10 µM; against USP8, > 10 µM; in assay [1] it was 3.7 µM. In assay [1], the “αSMA inhibition / transdifferentiation (in words)” value is “not and weak αSMA inhibition”.
